Test [1] can be described thus: Anti-PS ELISA on PS-coated plates. The test is classed as binding. The method, then:
The anti-PS ELISA used in the present studies is conducted as follows. Unless particular differences are specified, this is the format of the ELISA used throughout the studies of the present application.
The ELISA is exemplified using the antigen PS (P-6641 25 mg 10 mg/ml (solvent is Chloroform:MeOH 95:5) in 2.5 ml bottle). Other phospholipids can be used using the same protocol. The PS (or other phospholipids) stock solution should be aliquoted and stored in an airtight container at −30° C. The preferred 96 well plates are Dynatech U bottom Immulon 1 (from Dynatech Labs. Cat# 011-010-3550).
The standard blocking buffer used herein is 10% bovine serum dissolved in PBS. Other blocking solutions are suitable, but any detergents should be excluded from block and wash solutions. The primary antibody is the test sample or admixture. The preferred secondary antibody is goat, anti-mouse IgG-HRP. The developing solutions are: 10 ml of 0.2 M Na2PO4, 10 ml of 0.1 M citric acid, one 10 mg tablet of OPD, and 10 μl of hydrogen peroxide. The stop solution is 0.18 M H2SO4.
(§1) The protocol entails coating 96-well plate with PS as follows: dilute the PS stock solution in n-hexane to 10 μg/ml and mix well. Add 50 μl to each well and allow this to evaporate for one hour. Add 200 μl of 10% serum (or other blocking buffer) to each well, cover and maintain at room temperature for 2 hours or overnight at 4° C. Wash the plate three times with PBS. Add the primary antibody (dilute in blocking buffer) and incubate for 2 hours at 37° C. Wash three times with PBS. Add 100 μl/well of secondary antibody (typically goat. anti-mouse IgG-HRP or other appropriate secondary antibody) and incubate for 1 hour at 37° C. Wash the plate three times with PBS. Develop the ELISA by adding 100 μl of developing solution to each of the wells, develop for 10 minutes, then add 100 μl of stop solution to each plate and read the O.D. at 490 nm.
Background: An ELISA detects its analyte on a solid surface through an enzyme-linked reagent.

Test [2] in a line: Reactivity with plastic-immobilized phospholipid (ELISA). The conditions noted are these: read-out: EC50 of binding. The method, then: Phospholipids were dissolved in n-hexane to a concentration of 50 μg/ml. 100 μl of this solution was added to wells of 96-well microtiter plates. After evaporation of the solvent in air, the plates were blocked for 2 h with 10% fetal bovine serum diluted in DPBS containing 2 mM Ca^2+ (binding buffer).
9D2 antibody or annexin V were diluted in the binding buffer in the presence of 10% serum at an initial concentration of 6.7 nM. Serial two-fold dilutions were prepared in the plates (100 μl per well). The plates were then incubated for 2 h at room temperature. The plates were washed and the 9D2 and annexin V were detected by goat anti-rat IgM conjugated to HRP and rabbit anti-human annexin V followed by goat anti-rabbit IgG conjugated to HRP (all diluted 1:1000), respectively. Secondary reagents were detected by using chromogenic substrate OPD followed by reading plates at 490 nm using a microplate reader (Molecular Devices, Palo Alto, Calif.).
The specificity of the 9D2 antibody binding was validated by using control rat IgM of irrelevant specificity (Pharmingen, San Diego, Calif.). The specificity of annexin V binding to phospholipids, which is Ca^2+-dependent, was determined by diluting the reagent in the DPBS containing 5 mM EDTA. Additional negative controls consisted of washing the plates with the binding buffer containing 0.2% of a detergent Tween 20. This treatment extracts lipids, thus removing the phospholipid that was absorbed to plastic. Neither 9D2 antibody nor annexin V bound to detergent-washed plates.

The nature of test [3]: ELISA on plates coated with phospholipids (specificity). The following applies: identical antibody concentration. The test is classed as binding. The method, then: as §1
The specificity of the antibodies was determined by ELISA using plates coated with the following phospholipids: PS, phosphatidylserine; PE, phosphatidylethanolamine; PI, phosphatidylinositol: PA. phosphatidic acid; PG, phosphatidylglycerol; PC, phosphatidylcholine: CL, cardiolipin; and SM, sphingomyelin.
The 1B9, 2G7 and 7C5 antibodies behave essentially the same. These antibodies recognize only PS and require serum or serum proteins for binding to PS. […]

The test system of test [4] is Factor Xa generation on IL-1α-stimulated bEnd.3 cells. Put plainly: Factor Xa formation induced by coaguligand (chromogenic assay). It is filed as cell-based, mouse. The conditions noted are these: 10 μg per ml. The method, then: The ability of Annexin V to affect Factor Xa formation induced by coaguligand was determined by a chromogenic assay. IL-1α-stimulated bEnd.3 cells were incubated with anti-VCAM-•tTF and permeabilized by saponin. Annexin V was added at concentrations ranging from 0.1 to 10 μg/ml and cells were incubated for 30 min. before addition of diluted Proplex T. The amount of Factor Xa generated in the presence or absence of Annexin V was determined. Each treatment was performed in duplicate and repeated at least twice.

A short description of test [5]: Competition of 9D2 and annexin V for binding to immobilized PS. The following applies: competitor in 10-fold molar excess. The method, then:
Biotinylated 9D2 antibody and annexin V were prepared by incubating purified proteins with a 10-fold molar excess of N-hydroxysuccinimide biotin (Sigma, Mo.) for 1 h at room temperature. Free biotin was removed by dialysis against PBS. […] For competition studies, […] biotinylated proteins were premixed with a 10-fold molar excess of unmodified proteins. The mixtures were then added to PS-coated plates. Bound reagents were detected by streptavidin-HRP conjugate diluted 1:1000. The binding to PS of each reagent in the absence of a competitor was taken as the 100% value.

The EC50 is the concentration needed to bring the measured effect to its halfway point. Take “Annexin V: high affinity PS binding ligand; natural ligand of anionic phospholipids and PE”: the EC50 in test [1] (MW used for conversion: IgM 900 kDa, IgG 150 kDa, Annexin V 36 kDa, read-out: EC50) is 2.77 nM; in test [1] (dilutions of tissue culture supernatants), 0.100 µg/mL; in test [2] (CL), 0.13 nM; in test [2] (PA), 0.1 nM; in test [2] (PC) it was greater than 8 nM; in test [2] (PE) it was 0.1 nM. In addition, the 50% effective concentration (EC50) in test [2] (PG) is 0.25 nM; in test [2] (PI) it was 0.05 nM; in test [2] (PS), 0.1 nM; in test [2] (SM), greater than 8 nM. Also, the “Affinity vs. 3SB (-fold increased)” value in test [1] (from EC50 in nM) is on record as 0.18 -fold. The “Binding vs. 3SB (-fold increased)” value in test [1] (from EC50 in μg/ml) is given as 4.68 -fold. In addition, in test [3], the “Relative Strength of Reactivity on ELISA” value is reported as “PS = PE = PI = PA > CL > PG”. Also, the “inhibition of factor Xa production” value in test [4] is 58%. Further, the “Binding (% Control) of biotinylated 9D2 to PS” value in test [5] was 93%. Besides, the “Binding (% Control) of biotinylated annexin V to PS” value in test [5] is recorded as 8%.

The values above are taken from patent US7678386B2, “Liposomes coated with selected antibodies that bind to aminophospholipids” (Board of Regents the University of Texas, priority 2002, dated 2010).
